Source: patent publication US9302999B2, “Substituted triazoles as herbicides” (E. I. DU PONT DE NEMOURS AND COMPANY, priority 2012, dated 2016)

How the values were obtained:
Type in all cases: in vivo
[1] = system: woolly cupgrass (Eriochloa villosa); assay: Test C pre-/postemergence: woolly cupgrass
In short: (§1)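 Preemergence on seeds in loam/sand, postemergence on 2–18 cm (1–4-leaf) plants in peat-based medium; compounds in non-phytotoxic solvent with surfactant. After 13–15 days in greenhouse, visual rating versus controls, 0 (no effect) to 100 (complete control).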

[2] = system: deadnettle (henbit deadnettle, Lamium amplexicaule); assay: Test C postemergence: deadnettle
In short: (§2)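 Crop and weed plants were grown in peat-vermiculite medium and treated postemergence at the 1- to 4-leaf stage (2-18 cm tall). After 13-15 days in a greenhouse, each species was rated visually against untreated controls on a 0-100 scale (0 no effect, 100 complete control).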

[3] = system: bromegrass, downy (downy bromegrass, Bromus tectorum); assay: Test C pre-/postemergence: bromegrass, downy
In short: as §1

[4] = system: barley (winter barley, Hordeum vulgare); assay: Test C postemergence: barley
In short: as §2

[5] = system: foxtail, green (green foxtail, Setaria viridis); assay: Test C pre-/postemergence: foxtail, green
In short: as §1

[6] = system: surinam grass (Brachiaria decumbens); assay: Test C pre-/postemergence: surinam grass
In short: as §1

[7] = system: goosegrass (Eleusine indica); assay: Test C pre-/postemergence: goosegrass
In short: as §1

[8] = system: bermudagrass (Cynodon dactylon); assay: Test C pre-/postemergence: bermudagrass
In short: as §1

[9] = system: windgrass (Apera spica-venti); assay: Test C postemergence: windgrass
In short: as §2

[10] = Postemergence, 31 g ai/ha, scale 0 to 100 (0 no effect, 100 complete control)
[11] = Postemergence, 62 g ai/ha, scale 0 to 100 (0 no effect, 100 complete control)
[12] = Postemergence, 125 g ai/ha, scale 0 to 100, 0 no effect, 100 complete control
[13] = Postemergence, 250 g ai/ha, scale 0 to 100
[14] = Preemergence, 31 g ai/ha, scale of 0 to 100, 0 is no effect, 100 is complete control
[15] = Preemergence, 62 g ai/ha, scale of 0 to 100, 0 is no effect, 100 is complete control
[16] = Preemergence, 125 g ai/ha, scale 0 to 100, 0 no effect, 100 complete control
[17] = Preemergence, 250 g ai/ha, scale 0 to 100, 0 no effect, 100 complete control
[18] = 31 g ai/ha, scale 0 to 100 (0 no effect, 100 complete control)
[19] = 62 g ai/ha, scale 0 to 100 (0 no effect, 100 complete control)
[20] = 125 g ai/ha, scale 0 to 100, 0 no effect, 100 complete control
[21] = Preemergence, 62 g ai/ha, scale 0 to 100, 0 no effect, 100 complete control

## Fc1ccc(-n2nc(Cc3ccnc(C(F)(F)F)c3)c(OC(F)F)n2)cc1 [Compound 25]
[1]; [10]
  Plant response rating, Cupgrass, Woolly: 25
[1]; [11]
  Plant response rating, Cupgrass, Woolly: 25
[1]; [12]
  Plant response rating, Cupgrass, Woolly: 25
[1]; [13]
  Plant response rating, Cupgrass, Woolly: 45
[1]; [14]
  Plant response rating, Cupgrass, Woolly: 20
[1]; [15]
  Plant response rating, Cupgrass, Woolly: 40
[1]; [16]
  Plant response rating, Cupgrass, Woolly: 65
[1]; [17]
  Plant response rating, Cupgrass, Woolly: 98
[2]; [18]
  Plant response rating, Deadnettle: 50
[2]; [19]
  Plant response rating, Deadnettle: 55
[2]; [20]
  Plant response rating, Deadnettle: 90
[2]; 250 g ai/ha, scale 0 to 100
  Plant response rating, Deadnettle: 100
[3]; [10]
  Plant response rating, Bromegrass, Downy: 5
[3]; [11]
  Plant response rating, Bromegrass, Downy: 5
[3]; [12]
  Plant response rating, Bromegrass, Downy: 5
[3]; [13]
  Plant response rating, Bromegrass, Downy: 10
[3]; [14]
  Plant response rating, Bromegrass, Downy: 5
[3]; [21]
  Plant response rating, Bromegrass, Downy: 5
[3]; [16]
  Plant response rating, Bromegrass, Downy: 40
[3]; [17]
  Plant response rating, Bromegrass, Downy: 80
[4]; [18]
  Plant response rating, Barley: 20
[4]; [19]
  Plant response rating, Barley: 25
[4]; [20]
  Plant response rating, Barley: 30
[4]; 250 g ai/ha, scale 0 to 100
  Plant response rating, Barley: 30
[5]; [10]
  Plant response rating, Foxtail, Green: 35
[5]; [11]
  Plant response rating, Foxtail, Green: 35
[5]; [12]
  Plant response rating, Foxtail, Green: 35
[5]; [13]
  Plant response rating, Foxtail, Green: 70
[5]; [14]
  Plant response rating, Foxtail, Green: 90
[5]; [15]
  Plant response rating, Foxtail, Green: 95
[5]; [16]
  Plant response rating, Foxtail, Green: 95
[5]; [17]
  Plant response rating, Foxtail, Green: 95
[6]; [10]
  Plant response rating, Surinam Grass: 10
[6]; [11]
  Plant response rating, Surinam Grass: 15
[6]; [12]
  Plant response rating, Surinam Grass: 20
[6]; [13]
  Plant response rating, Surinam Grass: 20
[6]; [14]
  Plant response rating, Surinam Grass: 15
[6]; [15]
  Plant response rating, Surinam Grass: 20
[6]; [16]
  Plant response rating, Surinam Grass: 55
[6]; [17]
  Plant response rating, Surinam Grass: 100
[7]; [10]
  Plant response rating, Goosegrass: 15
[7]; [11]
  Plant response rating, Goosegrass: 20
[7]; [12]
  Plant response rating, Goosegrass: 25
[7]; [13]
  Plant response rating, Goosegrass: 40
[7]; [14]
  Plant response rating, Goosegrass: 90
[7]; [15]
  Plant response rating, Goosegrass: 100
[7]; [16]
  Plant response rating, Goosegrass: 100
[7]; [17]
  Plant response rating, Goosegrass: 100
[8]; [10]
  Plant response rating, Bermudagrass: 15
[8]; [11]
  Plant response rating, Bermudagrass: 20
[8]; [12]
  Plant response rating, Bermudagrass: 25
[8]; [13]
  Plant response rating, Bermudagrass: 25
[8]; [14]
  Plant response rating, Bermudagrass: 85
[8]; [21]
  Plant response rating, Bermudagrass: 98
[8]; [16]
  Plant response rating, Bermudagrass: 98
[8]; [17]
  Plant response rating, Bermudagrass: 100
[9]; [18]
  Plant response rating, Windgrass: 30
[9]; [19]
  Plant response rating, Windgrass: 35
[9]; [20]
  Plant response rating, Windgrass: 40
[9]; 250 g ai/ha, scale 0 to 100
  Plant response rating, Windgrass: 40

## FC(F)Oc1nn(-c2ccc(C(F)(F)F)cc2)nc1Cc1ccnc(C(F)(F)F)c1 [Compound 26]
[1]; [10]
  Plant response rating, Cupgrass, Woolly: 25
[1]; [11]
  Plant response rating, Cupgrass, Woolly: 40
[1]; [12]
  Plant response rating, Cupgrass, Woolly: 45
[1]; [13]
  Plant response rating, Cupgrass, Woolly: 55
[1]; [14]
  Plant response rating, Cupgrass, Woolly: 10
[1]; [15]
  Plant response rating, Cupgrass, Woolly: 65
[1]; [16]
  Plant response rating, Cupgrass, Woolly: 70
[1]; [17]
  Plant response rating, Cupgrass, Woolly: 90
[2]; [18]
  Plant response rating, Deadnettle: 98
[2]; [19]
  Plant response rating, Deadnettle: 98
[2]; [20]
  Plant response rating, Deadnettle: 98
[2]; 250 g ai/ha, scale 0 to 100
  Plant response rating, Deadnettle: 100
[3]; [10]
  Plant response rating, Bromegrass, Downy: 15
[3]; [11]
  Plant response rating, Bromegrass, Downy: 30
[3]; [12]
  Plant response rating, Bromegrass, Downy: 40
[3]; [13]
  Plant response rating, Bromegrass, Downy: 50
[3]; [14]
  Plant response rating, Bromegrass, Downy: 5
[3]; [21]
  Plant response rating, Bromegrass, Downy: 45
[3]; [16]
  Plant response rating, Bromegrass, Downy: 50
[3]; [17]
  Plant response rating, Bromegrass, Downy: 85
[4]; [18]
  Plant response rating, Barley: 20
[4]; [19]
  Plant response rating, Barley: 30
[4]; [20]
  Plant response rating, Barley: 30
[4]; 250 g ai/ha, scale 0 to 100
  Plant response rating, Barley: 40
[5]; [10]
  Plant response rating, Foxtail, Green: 30
[5]; [11]
  Plant response rating, Foxtail, Green: 40
[5]; [12]
  Plant response rating, Foxtail, Green: 70
[5]; [13]
  Plant response rating, Foxtail, Green: 85
[5]; [14]
  Plant response rating, Foxtail, Green: 85
[5]; [15]
  Plant response rating, Foxtail, Green: 95
[5]; [16]
  Plant response rating, Foxtail, Green: 95
[5]; [17]
  Plant response rating, Foxtail, Green: 95
[6]; [10]
  Plant response rating, Surinam Grass: 15
[6]; [11]
  Plant response rating, Surinam Grass: 20
[6]; [12]
  Plant response rating, Surinam Grass: 25
[6]; [13]
  Plant response rating, Surinam Grass: 45
[6]; [14]
  Plant response rating, Surinam Grass: 10
[6]; [15]
  Plant response rating, Surinam Grass: 50
[6]; [16]
  Plant response rating, Surinam Grass: 65
[6]; [17]
  Plant response rating, Surinam Grass: 90
[7]; [10]
  Plant response rating, Goosegrass: 25
[7]; [11]
  Plant response rating, Goosegrass: 30
[7]; [12]
  Plant response rating, Goosegrass: 40
[7]; [13]
  Plant response rating, Goosegrass: 70
[7]; [14]
  Plant response rating, Goosegrass: 95
[7]; [15]
  Plant response rating, Goosegrass: 100
[7]; [16]
  Plant response rating, Goosegrass: 100
[7]; [17]
  Plant response rating, Goosegrass: 100
[8]; [10]
  Plant response rating, Bermudagrass: 20
[8]; [11]
  Plant response rating, Bermudagrass: 20
[8]; [12]
  Plant response rating, Bermudagrass: 30
[8]; [13]
  Plant response rating, Bermudagrass: 30
[8]; [14]
  Plant response rating, Bermudagrass: 75
[8]; [21]
  Plant response rating, Bermudagrass: 100
[8]; [16]
  Plant response rating, Bermudagrass: 100
[8]; [17]
  Plant response rating, Bermudagrass: 100
[9]; [18]
  Plant response rating, Windgrass: 40
[9]; [19]
  Plant response rating, Windgrass: 55
[9]; [20]
  Plant response rating, Windgrass: 80
[9]; 250 g ai/ha, scale 0 to 100
  Plant response rating, Windgrass: 80

## FC(F)(F)c1ccc(-n2nc(Cl)c(Cc3ccnc(C(F)(F)F)c3)n2)cc1 [Compound 28]
[1]; [10]
  Plant response rating, Cupgrass, Woolly: 20
[1]; [11]
  Plant response rating, Cupgrass, Woolly: 30
[1]; [12]
  Plant response rating, Cupgrass, Woolly: 35
[1]; [13]
  Plant response rating, Cupgrass, Woolly: 40
[2]; [18]
  Plant response rating, Deadnettle: 40
[2]; [19]
  Plant response rating, Deadnettle: 80
[2]; [20]
  Plant response rating, Deadnettle: 90
[2]; 250 g ai/ha, scale 0 to 100
  Plant response rating, Deadnettle: 100
[3]; [10]
  Plant response rating, Bromegrass, Downy: 5
[3]; [11]
  Plant response rating, Bromegrass, Downy: 25
[3]; [12]
  Plant response rating, Bromegrass, Downy: 35
[3]; [13]
  Plant response rating, Bromegrass, Downy: 35
[4]; [18]
  Plant response rating, Barley: 10
[4]; [19]
  Plant response rating, Barley: 15
[4]; [20]
  Plant response rating, Barley: 20
[4]; 250 g ai/ha, scale 0 to 100
  Plant response rating, Barley: 35
[5]; [10]
  Plant response rating, Foxtail, Green: 30
[5]; [11]
  Plant response rating, Foxtail, Green: 70
[5]; [12]
  Plant response rating, Foxtail, Green: 70
[5]; [13]
  Plant response rating, Foxtail, Green: 85
[6]; [10]
  Plant response rating, Surinam Grass: 5
[6]; [11]
  Plant response rating, Surinam Grass: 10
[6]; [12]
  Plant response rating, Surinam Grass: 15
[6]; [13]
  Plant response rating, Surinam Grass: 15
[7]; [10]
  Plant response rating, Goosegrass: 20
[7]; [11]
  Plant response rating, Goosegrass: 20
[7]; [12]
  Plant response rating, Goosegrass: 25
[7]; [13]
  Plant response rating, Goosegrass: 45
[8]; [10]
  Plant response rating, Bermudagrass: 10
[8]; [11]
  Plant response rating, Bermudagrass: 15
[8]; [12]
  Plant response rating, Bermudagrass: 20
[8]; [13]
  Plant response rating, Bermudagrass: 25
[9]; [18]
  Plant response rating, Windgrass: 30
[9]; [19]
  Plant response rating, Windgrass: 45
[9]; [20]
  Plant response rating, Windgrass: 50
[9]; 250 g ai/ha, scale 0 to 100
  Plant response rating, Windgrass: 50
